Test results reported in ChEMBL document CHEMBL1135600, “Novel tricyclic-alpha-alkyloxyphenylpropionic acids: dual PPARalpha/gamma agonists with hypolipidemic and antidiabetic activity” (J Med Chem, 2002).
Where “and” joins values, the source holds several entries; their conditions need not be identical. Identical values can stand only once. Calls of active or inactive are those of the source. The calls are words filed in the database; no cut-off is given here.

Key:
Mus musculus [1] = species on record: Mus musculus; experiment: Nonfasting blood glucose after 7 days treatment in male db/db mice; format: functional; details: 168 h
Mus musculus [2] = experiment: In vivo blood glucose area under curve after oral glucose tolerance test in male db/db mice at 1 mg/kg peroral dose of compound thrice a day; format: ADME, organism-based; design: dose 1 mg/kg, route oral
Mus musculus [3] = experiment: In vivo % reduction of blood glucose area under curve after oral glucose tolerance test in male db/db mice at 1 mg/kg peroral dose of compound once in a day; format: ADME, organism-based; design: dose 1 mg/kg, route oral
Mus musculus [4] = species on record: Mus musculus; experiment: Nonfasting insulin after 7 days treatment in male db/db mice; format: functional; details: 168 h
Mus musculus [5] = experiment: In vivo % reduction of blood glucose level in male db/db mice after administration of 1 mg/kg peroral dose of compound thrice a day; format: functional; details: route oral
Mus musculus [6] = experiment: In vivo blood glucose level in male db/db mice after administration of 0.33 mg/kg peroral dose of compound thrice a day; format: functional; details: route oral
Mus musculus [7] = experiment: In vivo blood glucose level in male db/db mice after administration of 1 mg/kg peroral dose of compound thrice a day; format: functional; details: route oral
Mus musculus [8] = experiment: In vivo % reduction of blood glucose area under curve after oral glucose tolerance test in male db/db mice at 3 mg/kg peroral dose of compound once in a day; format: ADME, organism-based; design: dose 3 mg/kg, route oral
[9] = Area under plasma concentration time curve after oral administration at a dose 2.2 mg/kg; format: ADME, organism-based; design: dose 2.2 mg/kg, route oral; details: in vivo
Mus musculus [10] = experiment: In vivo blood glucose area under curve after oral glucose tolerance test in male db/db mice at 3 mg/kg peroral dose of compound once in a day; format: ADME, organism-based; design: dose 3 mg/kg, route oral
Mus musculus [11] = experiment: In vivo blood glucose area under curve after oral glucose tolerance test in male db/db mice at 1 mg/kg peroral dose of compound once in a day; format: ADME, organism-based; design: dose 1 mg/kg, route oral
Mus musculus [12] = experiment: In vivo % reduction of blood glucose level in male db/db mice after administration of 3 mg/kg peroral dose of compound once in a day; format: functional; details: route oral
Mus musculus [13] = experiment: In vivo blood glucose area under curve after oral glucose tolerance test in male db/db mice at 0.33 mg/kg peroral dose of compound thrice a day; format: ADME, organism-based; design: dose 0.33 mg/kg, route oral
Mus musculus [14] = experiment: In vivo % reduction of blood glucose level in male db/db mice after administration of 1 mg/kg peroral dose of compound once in a day; format: functional; details: route oral
[15] = Oral bioavailability; format: ADME, organism-based; details: eutheria, in vivo
Mus musculus [16] = experiment: In vivo % reduction of blood glucose area under curve after oral glucose tolerance test in male db/db mice at 1 mg/kg peroral dose of compound thrice a day; format: ADME, organism-based; design: dose 1 mg/kg, route oral
Mus musculus [17] = species on record: Mus musculus; experiment: Maximum achieved insulin reduction relative to vehicle treated control group; format: functional
Mus musculus [18] = experiment: In vivo % reduction of blood glucose area under curve after oral glucose tolerance test in male db/db mice at 0.33 mg/kg peroral dose of compound thrice a day; format: ADME, organism-based; design: dose 0.33 mg/kg, route oral
[19] = Maximum plasma concentration after oral administration at a dose 2.2 mg/kg; format: ADME, organism-based; design: dose 2.2 mg/kg, route oral
[20] = Maximum achieved Total cholesterol reduction relative to vehicle treated control group; format: functional
Mus musculus [21] = species on record: Mus musculus; experiment: (§1) Maximum achieved blood glucose reduction relative to vehicle treated control group; format: functional
Mus musculus [22] = experiment: In vivo % reduction of blood glucose level in male db/db mice after administration of 0.33 mg/kg peroral dose of compound thrice a day; format: functional; details: route oral
Mus musculus [23] = species on record: Mus musculus; experiment: Nonfasting triglycerides after 7 days treatment in male db/db mice; format: functional; details: 168 h
[24] = Maximum achieved Nonfasted triglycerides reduction relative to vehicle treated control group; format: functional
Mus musculus [25] = species on record: Mus musculus; experiment: Maximum achieved triglycerides reduction relative to vehicle treated control group; format: functional
[26] = Area under blood glucose time curve after OGTT on the 9th day of treatment; format: ADME, tissue-based
Mus musculus [27] = experiment: In vivo blood glucose level in male db/db mice after administration of 3 mg/kg peroral dose of compound once in a day; format: functional; details: route oral
[28] = Clearance after oral administration; format: ADME, organism-based; details: in vivo
Mus musculus [29] = experiment: In vivo blood glucose level in male db/db mice after administration of 1 mg/kg peroral dose of compound once in a day; format: functional; details: route oral
[30] = Oral bioavailability in rat; format: ADME, organism-based; details: in vivo
[31] = target: T1, Peroxisome proliferator-activated receptor gamma (Homo sapiens, UniProt P37231)
T1 sequence (P37231 whole entry): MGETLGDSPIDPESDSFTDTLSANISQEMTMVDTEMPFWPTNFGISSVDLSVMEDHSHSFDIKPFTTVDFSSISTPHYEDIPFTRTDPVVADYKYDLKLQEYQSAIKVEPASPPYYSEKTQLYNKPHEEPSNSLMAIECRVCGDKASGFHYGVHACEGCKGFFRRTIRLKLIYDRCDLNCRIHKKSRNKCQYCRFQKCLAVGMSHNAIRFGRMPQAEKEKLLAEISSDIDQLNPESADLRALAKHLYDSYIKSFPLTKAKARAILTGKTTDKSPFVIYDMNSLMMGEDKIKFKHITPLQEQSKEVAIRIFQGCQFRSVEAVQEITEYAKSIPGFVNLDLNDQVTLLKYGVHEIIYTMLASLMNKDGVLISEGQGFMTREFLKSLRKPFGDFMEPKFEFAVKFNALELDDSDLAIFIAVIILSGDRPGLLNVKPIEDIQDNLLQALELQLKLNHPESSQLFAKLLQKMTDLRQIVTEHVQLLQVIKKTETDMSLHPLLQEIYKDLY
Description: In vitro transactivation using receptor transactivation assay against hPPAR gamma

Mus musculus [32] = species on record: Mus musculus; experiment: Effective dose which produces the desired nonfasting blood glucose levels after 7 days in 50% of the treated mice.; format: functional; details: 168 h
Mus musculus [33] = species on record: Mus musculus; experiment: Effective dose which produces the desired nonfasting insuline levels after 7 days in 50% of the treated male db/db mice.; format: functional; details: 168 h
[34] = Oral half life was reported in rat; format: ADME, organism-based; details: in vivo
[35] = Volume of distribution during steady state in rat; format: ADME, organism-based; details: in vivo, read-out: Vss
Mus musculus [36] = species on record: Mus musculus; experiment: Effective dose which produces the desired nonfasting triglyceride levels after 7 days in 50% of the treated male db/db mice.; format: functional; details: 168 h
[37] = Maximum plasma concentration after oral administration at a dose 2.2 mg/kg in rat; format: ADME, organism-based; design: dose 2.2 mg/kg, route oral
[38] = target: T2, Peroxisome proliferator-activated receptor alpha (Homo sapiens, UniProt Q07869); experiment: In vitro transactivation using receptor transactivation assay against hPPAR alpha; format: functional
T2 sequence (Q07869 whole entry): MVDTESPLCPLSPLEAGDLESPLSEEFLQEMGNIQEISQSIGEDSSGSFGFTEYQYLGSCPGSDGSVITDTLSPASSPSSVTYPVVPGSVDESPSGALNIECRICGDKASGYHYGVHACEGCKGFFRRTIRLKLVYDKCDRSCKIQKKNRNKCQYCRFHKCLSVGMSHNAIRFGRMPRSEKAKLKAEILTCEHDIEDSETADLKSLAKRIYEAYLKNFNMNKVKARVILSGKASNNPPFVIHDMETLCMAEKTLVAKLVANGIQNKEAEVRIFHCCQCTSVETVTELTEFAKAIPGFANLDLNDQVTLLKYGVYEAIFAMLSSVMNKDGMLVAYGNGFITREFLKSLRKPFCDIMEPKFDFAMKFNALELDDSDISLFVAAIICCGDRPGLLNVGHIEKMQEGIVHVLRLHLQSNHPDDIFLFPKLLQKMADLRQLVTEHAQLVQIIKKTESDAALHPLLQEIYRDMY

[39] = Clearance after oral administration in rat; format: ADME, organism-based; details: in vivo
[40] = Area under plasma concentration time curve after oral administration at a dose 2.2 mg/kg in rat; format: ADME, organism-based; design: dose 2.2 mg/kg, route oral
Mus musculus [41] = species on record: Mus musculus; experiment: Minimum concentration which produces the desired nonfasting blood glucose levels after 7 days in 50% of the treated mice.; format: functional; details: 168 h
Mus musculus [42] = species on record: Mus musculus; experiment: Maximum achieved insulin reduction relative to vehicle treated control group; NE is Not Effective.; format: functional, organism-based
Mus musculus [43] = species on record: Mus musculus; experiment: Minimum concentration which produces the desired nonfasting triglyceride levels after 7 days in 50% of the treated male db/db mice.; format: functional; details: 168 h
[44] = target: T3, Peroxisome proliferator-activated receptor delta (Homo sapiens, UniProt Q03181); experiment: In vitro transcriptional activation of hPPAR delta; format: functional
T3 sequence (Q03181 whole entry): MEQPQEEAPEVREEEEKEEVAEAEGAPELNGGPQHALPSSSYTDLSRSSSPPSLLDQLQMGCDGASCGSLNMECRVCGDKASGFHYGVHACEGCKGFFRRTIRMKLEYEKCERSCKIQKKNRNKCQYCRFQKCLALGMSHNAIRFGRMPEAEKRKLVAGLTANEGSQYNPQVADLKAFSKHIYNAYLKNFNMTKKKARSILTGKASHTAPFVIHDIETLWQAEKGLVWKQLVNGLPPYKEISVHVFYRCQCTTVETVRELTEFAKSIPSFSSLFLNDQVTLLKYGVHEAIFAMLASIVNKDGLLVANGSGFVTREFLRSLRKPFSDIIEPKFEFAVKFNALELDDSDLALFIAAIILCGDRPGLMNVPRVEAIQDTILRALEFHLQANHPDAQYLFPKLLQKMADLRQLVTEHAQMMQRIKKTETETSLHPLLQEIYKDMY

Mus musculus [45] = species on record: Mus musculus; experiment: as §1; format: functional; remark: listed apart in the source
[46] = Oral half life was reported; format: ADME, organism-based; details: in vivo

| SMILES | ED50 (Mus musculus [1]) [mg/kg] | ED50 (Mus musculus [4]) [mg/kg] | AUC [9] [ng·h/mL] | bioavailability [15] [%] | Max reduction (Mus musculus [17]) [%] | Max reduction (Mus musculus [21]) | ED50 (Mus musculus [23]) [mg/kg] | Max reduction (Mus musculus [25]) [%] | AUC ED50 [26] [mg/kg] | CL/F [28] [mL/min/kg] | bioavailability [30] [%] | EC50 [31] [nM] | Vd [35] [L/kg] | Cmax [37] [ng/mL] | EC50 [38] [nM] | CL/F [39] [mL/min/kg] | other results |
| --- | --- | --- | --- | --- | --- | --- | --- | --- | --- | --- | --- | --- | --- | --- | --- | --- | --- |
| CN(CCOc1ccc(CC2SC(=O)NC2=O)cc1)c1ccccn1 (stereo unspecified) [ROSIGLITAZONE] | 0.87 | 0.07 | 14600 | 83 | 43 | 35% and 16% | 0.14 | 58 | 0.77 | 2.1 | – | – | – | – | – | – | AUC glu (Mus musculus [2]): 1423 mM·min; AUC glu reduction (Mus musculus [3]): 14%; BG reduction (Mus musculus [5]): 39%; BG (Mus musculus [6]): 11.35 mM; BG (Mus musculus [7]): 13.06 mM; AUC glu reduction (Mus musculus [8]): 28%; AUC glu (Mus musculus [10]): 2141 mM·min; AUC glu (Mus musculus [11]): 2551 mM·min; BG reduction (Mus musculus [12]): 45%; AUC glu (Mus musculus [13]): 2398 mM·min; BG reduction (Mus musculus [14]): 25%; AUC glu reduction(mM x min) (Mus musculus [16]): 51%; AUC glu reduction (Mus musculus [18]): 18%; Cmax ([19]; rat): 4420 ng/mL; Reduction [20]: 24%; BG reduction (Mus musculus [22]): 47%; Reduction [24]: 11%; BG (Mus musculus [27]): 11.72 mM; BG (Mus musculus [29]): 16.08 mM |
| CCO[C@@H](Cc1ccc(OCCn2c3ccccc3c3ccncc32)cc1)C(=O)O | – | – | – | – | 77 | – | – | 50 | 3.32 | – | 61 | 11 | 0.88 | 527 | 140 | 12.7 | ED50 (Mus musculus [32]): 0.33 mg/kg; ED50 (Mus musculus [33]): 7.74 mg/kg; half-life [34]: 2.7 h; ED50 (Mus musculus [36]): 2.68 mg/kg; AUC [40]: 1330 ng·h/mL |
| CCOC(Cc1ccc(OCCCN2c3ccccc3OCOc3ccccc32)cc1)C(=O)O (stereo unspecified) | – | – | – | – | – | 17% and 20% | – | 13 | 6.57 | – | 63 | 1200 | 0.76 | 730 | 1200 | 13.7 | ED50 (Mus musculus [41]): 8.11 mg/kg; NE (Mus musculus [42]): inactive; ED50 (Mus musculus [43]): 18.3 mg/kg |
| CCCCC[C@H](O)/C=C/[C@@H]1[C@H]2C/C(=C\CCCC(=O)O)C[C@H]2C[C@H]1O [CARBACYCLIN] | – | – | – | – | – | – | – | – | – | – | – | – | – | – | 340 | – | EC50 [44]: 2410 nM |
| CCc1ccc(CCOc2ccc(CC3SC(=O)NC3=O)cc2)nc1 (stereo unspecified) [PIOGLITAZONE] | 2.62 | 15.1 | 29200 | 112 | 54 | 53% | 26.7 | 21 | 12.09 | 1.4 | – | – | – | – | – | – | Vd (in vivo): 0.22 L/kg; Max reduction (Mus musculus [45]): 39%; half-life [46]: 3.8 h; Cmax [19]: 4660 ng/mL |
